Test results reported in publication PMC5218480 (PLoS ONE, 2017).

System: MV-4-11 cells
Assay: Gene expression microarray analysis (Affymetrix PrimeView) and GSEA
Assay type: cell-based, human
Design: RFU PODN (11730768_x_at) / Fold change /veh PODN (11730768_x_at) / RFU LINC00158 (11744669_a_at) / Fold change /veh LINC00158 (11744669_a_at) / RFU DUSP10 (11751237_a_at) / Fold change /veh DUSP10 (11751237_a_at) / RFU ID3 (11757404_x_at) / Fold change /veh ID3 (11757404_x_at) / RFU PLEKHG5 (11737974_s_at) / Fold change /veh PLEKHG5 (11737974_s_at) / RFU LRRC4B (11730491_at) / Fold change /veh LRRC4B (11730491_at) / RFU GIMAP4 (11747438_a_at) / Fold change /veh GIMAP4 (11747438_a_at) / RFU KRT8 (11758183_x_at) / Fold change /veh KRT8 (11758183_x_at) / RFU CNN1 (11734310_a_at) / Fold change /veh CNN1 (11734310_a_at) / RFU VPS37D (11726825_at) / Fold change /veh VPS37D (11726825_at) / RFU C10orf10 (11716522_x_at) / Fold change /veh C10orf10 (11716522_x_at) / RFU KIR2DL2 /// KIR2DL4 /// KIR2DL5A /// KIR2DL5B /// KIR2DS1 /// KIR2DS2 /// KIR2DS3 /// KIR2DS4 /// KIR3DL3 /// KIR3DL3 /// KIR3DS1 (11738374_at) / Fold change /veh KIR2DL2 /// KIR2DL4 /// KIR2DL5A /// KIR2DL5B /// KIR2DS1 /// KIR2DS2 /// KIR2DS3 /// KIR2DS4 /// KIR3DL3 /// KIR3DL3 /// KIR3DS1 (11738374_at) / RFU C1QL1 (11718748_at) / Fold change /veh C1QL1 (11718748_at) / RFU TMPRSS4 (11747572_a_at) / Fold change /veh TMPRSS4 (11747572_a_at) / RFU HAMP (11756126_x_at) / Fold change /veh HAMP (11756126_x_at) / RFU RNFT2 (11725882_a_at) / Fold change /veh RNFT2 (11725882_a_at) / RFU NR4A2 (11747474_a_at) / Fold change /veh NR4A2 (11747474_a_at) / RFU ABCC12 (11746883_a_at) / Fold change /veh ABCC12 (11746883_a_at) / RFU TMEM136 (11760407_x_at) / Fold change /veh TMEM136 (11760407_x_at) / RFU CLDN22 /// WWC2 (11732394_at) / Fold change /veh CLDN22 /// WWC2 (11732394_at) / RFU HLA-DPB1 (11760878_x_at) / Fold change /veh HLA-DPB1 (11760878_x_at) / RFU SPINT1 (11716480_a_at) / Fold change /veh SPINT1 (11716480_a_at) / RFU GAP43 (11754022_s_at) / Fold change /veh GAP43 (11754022_s_at) / RFU A4GNT (11735810_at) / Fold change /veh A4GNT (11735810_at) / RFU PRB3 (11715151_x_at) / Fold change /veh PRB3 (11715151_x_at) / RFU TUBB4B (11761932_at) / Fold change /veh TUBB4B (11761932_at) / RFU CAPN14 (11732068_a_at) / Fold change /veh CAPN14 (11732068_a_at) / RFU TMCC2 (11721928_a_at) / Fold change /veh TMCC2 (11721928_a_at) / RFU IRGQ (11745062_a_at) / Fold change /veh IRGQ (11745062_a_at) / RFU FAM174B (11720279_a_at) / Fold change /veh FAM174B (11720279_a_at) / RFU TMPRSS4 (11748680_a_at) / Fold change /veh TMPRSS4 (11748680_a_at) / RFU FAM212B (11763350_a_at) / Fold change /veh FAM212B (11763350_a_at) / RFU PLEKHG5 (11743358_a_at) / Fold change /veh PLEKHG5 (11743358_a_at) / RFU ZSCAN30 (11745921_a_at) / Fold change /veh ZSCAN30 (11745921_a_at) / RFU CMKLR1 (11741424_a_at) / Fold change /veh CMKLR1 (11741424_a_at) / RFU LOC101060620 /// MAPK8IP1 (11723275_at) / Fold change /veh LOC101060620 /// MAPK8IP1 (11723275_at) / RFU SPTSSB (11747773_x_at) / Fold change /veh SPTSSB (11747773_x_at) / RFU PRSS12 (11739890_at) / Fold change /veh PRSS12 (11739890_at) / RFU BIN1 (11741810_x_at) / Fold change /veh BIN1 (11741810_x_at) / RFU WNT11 (11732464_a_at) / Fold change /veh WNT11 (11732464_a_at) / RFU C10orf10 (11716521_a_at) / Fold change /veh C10orf10 (11716521_a_at) / RFU C5orf56 (11738089_at) / Fold change /veh C5orf56 (11738089_at) / RFU CYB561 (11721691_x_at) / Fold change /veh CYB561 (11721691_x_at) / RFU ANKRD19P (11752326_a_at) / Fold change /veh ANKRD19P (11752326_a_at) / RFU OR2T12 /// OR2T33 /// OR2T8 (11738714_s_at) / Fold change /veh OR2T12 /// OR2T33 /// OR2T8 (11738714_s_at) / RFU VCAN (11748164_a_at) / Fold change /veh VCAN (11748164_a_at) / RFU JSRP1 (11732532_at) / Fold change /veh JSRP1 (11732532_at) / RFU KRTAP10-11 (11738290_x_at) / Fold change /veh KRTAP10-11 (11738290_x_at) / RFU MYO3A (11730013_a_at) / Fold change /veh MYO3A (11730013_a_at) / RFU EBF3 (11725865_a_at) / Fold change /veh EBF3 (11725865_a_at) / RFU CAMK2N1 (11719241_x_at) / Fold change /veh CAMK2N1 (11719241_x_at) / RFU C5orf56 (11738088_a_at) / Fold change /veh C5orf56 (11738088_a_at) / RFU OLFML3 (11715873_a_at) / Fold change /veh OLFML3 (11715873_a_at) / RFU LOC100653217 /// NTM (11731650_a_at) / Fold change /veh LOC100653217 /// NTM (11731650_a_at) / RFU MAPK11 (11762145_a_at) / Fold change /veh MAPK11 (11762145_a_at) / RFU FIZ1 (11724087_x_at) / Fold change /veh FIZ1 (11724087_x_at) / RFU OASL (11726364_x_at) / Fold change /veh OASL (11726364_x_at) / RFU SOX15 (11748057_x_at) / Fold change /veh SOX15 (11748057_x_at) / RFU CD79A (11719716_a_at) / Fold change /veh CD79A (11719716_a_at) / RFU HIST1H1D (11736915_at) / Fold change /veh HIST1H1D (11736915_at) / RFU CASKIN2 (11723855_a_at) / Fold change /veh CASKIN2 (11723855_a_at) / RFU LOC730098 (11760151_x_at) / Fold change /veh LOC730098 (11760151_x_at) / RFU OR4N2 (11742367_at) / Fold change /veh OR4N2 (11742367_at) / RFU PRRT2 (11749266_a_at) / Fold change /veh PRRT2 (11749266_a_at) / RFU SNX32 (11753110_a_at) / Fold change /veh SNX32 (11753110_a_at) / RFU CDHR5 (11726645_a_at) / Fold change /veh CDHR5 (11726645_a_at) / RFU RCAN1 (11760418_a_at) / Fold change /veh RCAN1 (11760418_a_at) / RFU FAM167A (11723789_a_at) / Fold change /veh FAM167A (11723789_a_at) / RFU FAM26E (11764081_at) / Fold change /veh FAM26E (11764081_at) / RFU ISYNA1 (11749810_s_at) / Fold change /veh ISYNA1 (11749810_s_at) / RFU ACY1 (11761880_at) / Fold change /veh ACY1 (11761880_at) / RFU 11764098_at / Fold change /veh 11764098_at / RFU SAMD14 (11745864_x_at) / Fold change /veh SAMD14 (11745864_x_at) / RFU NPB (11741838_a_at) / Fold change /veh NPB (11741838_a_at) / RFU TMPRSS6 (11731388_a_at) / Fold change /veh TMPRSS6 (11731388_a_at) / RFU KRTAP10-2 (11738614_at) / Fold change /veh KRTAP10-2 (11738614_at) / RFU ARHGAP8 /// PRR5-ARHGAP8 (11727945_x_at) / Fold change /veh ARHGAP8 /// PRR5-ARHGAP8 (11727945_x_at) / RFU KRTAP5-7 /// NADSYN1 (11734609_at) / Fold change /veh KRTAP5-7 /// NADSYN1 (11734609_at) / RFU RASL12 (11751679_a_at) / Fold change /veh RASL12 (11751679_a_at) / RFU CDKN2B (11736163_a_at) / Fold change /veh CDKN2B (11736163_a_at) / RFU PRF1 (11729649_at) / Fold change /veh PRF1 (11729649_at) / RFU, ZNF638 /// ZNF638-IT1 / Fold change vs veh, ZNF638 /// ZNF638-IT1 / RFU, PANK3 / Fold change vs veh, PANK3 / RFU, SH3YL1 / Fold change vs veh, SH3YL1 / RFU, ZEB2 / Fold change vs veh, ZEB2 / RFU, NRIP1 / Fold change vs veh, NRIP1 / RFU, PTTG1IP / Fold change vs veh, PTTG1IP / RFU, CAPN2 / Fold change vs veh, CAPN2 / RFU, MED14 / Fold change vs veh, MED14 / RFU, SNORA58 / Fold change vs veh, SNORA58 / RFU, C1orf63 / Fold change vs veh, C1orf63 / RFU, LRRFIP1 / Fold change vs veh, LRRFIP1 / RFU, NDUFAF7 / Fold change vs veh, NDUFAF7 / RFU, SLC12A2 / Fold change vs veh, SLC12A2 / RFU, IBTK / Fold change vs veh, IBTK / RFU, ESF1 / Fold change vs veh, ESF1 / Fold change vs veh, TMEM50B / RFU, TAOK1 / Fold change vs veh, TAOK1 / RFU, ACBD3 / Fold change vs veh, ACBD3 / RFU, TMA16 / Fold change vs veh, TMA16 / RFU, RWDD3 / Fold change vs veh, RWDD3 / RFU, BCAT1 / Fold change vs veh, BCAT1 / RFU, EDEM3 / Fold change vs veh, EDEM3 / RFU, TMEM33 / Fold change vs veh, TMEM33 / RFU, WDR75 / Fold change vs veh, WDR75 / RFU, AHCTF1 / Fold change vs veh, AHCTF1 / RFU, TFRC / Fold change vs veh, TFRC / RFU, ZDHHC17 / Fold change vs veh, ZDHHC17 / RFU, NOM1 / Fold change vs veh, NOM1 / RFU, ARL8B / Fold change vs veh, ARL8B / RFU, ZBTB11 / Fold change vs veh, ZBTB11 / RFU, TAMM41 / Fold change vs veh, TAMM41 / RFU, KIAA1704 /// LOC100996395 / Fold change vs veh, KIAA1704 /// LOC100996395 / RFU, ING1 / Fold change vs veh, ING1 / RFU, TRMT61B / Fold change vs veh, TRMT61B / RFU, FUBP3 / Fold change vs veh, FUBP3 / RFU, TP53 / Fold change vs veh, TP53 / RFU, TNKS2 / Fold change vs veh, TNKS2 / RFU, ZFP14 / Fold change vs veh, ZFP14 / RFU, ACTR2 / Fold change vs veh, ACTR2 / RFU, PPP3R1 / Fold change vs veh, PPP3R1 / RFU, PIK3R1 / Fold change vs veh, PIK3R1 / RFU, HNRNPA1 / Fold change vs veh, HNRNPA1 / RFU, RNF170 / Fold change vs veh, RNF170 / RFU, ZNF28 / Fold change vs veh, ZNF28 / RFU, RNGTT / Fold change vs veh, RNGTT / RFU, OGT / Fold change vs veh, OGT / RFU, BRD1 / Fold change vs veh, BRD1 / RFU, MARS / Fold change vs veh, MARS / RFU, ZNF655 / Fold change vs veh, ZNF655 / RFU, FAHD1 / Fold change vs veh, FAHD1 / RFU, BDP1 / Fold change vs veh, BDP1 / RFU, LRRCC1 / Fold change vs veh, LRRCC1 / RFU, ARID1A / Fold change vs veh, ARID1A / RFU, ZNF146 / Fold change vs veh, ZNF146 / RFU, ZNF330 / Fold change vs veh, ZNF330 / RFU, GPN3 / Fold change vs veh, GPN3 / RFU, C9orf123 / Fold change vs veh, C9orf123 / RFU, N4BP2L2 / Fold change vs veh, N4BP2L2 / RFU, ARFIP1 / Fold change vs veh, ARFIP1 / RFU, FAM179B / Fold change vs veh, FAM179B / RFU, BCL10 / Fold change vs veh, BCL10 / RFU, UHRF1BP1L / Fold change vs veh, UHRF1BP1L / RFU, BET1 / Fold change vs veh, BET1 / RFU, CNOT2 / Fold change vs veh, CNOT2 / RFU, ZNF268 / Fold change vs veh, ZNF268 / Fold change vs veh, ZNF507 / RFU, DGCR2 / Fold change vs veh, DGCR2 / RFU, WDSUB1 / Fold change vs veh, WDSUB1 / Fold change vs veh, HSP90B1 /// MIR3652 / RFU, ADSS / Fold change vs veh, ADSS / RFU, GK / Fold change vs veh, GK / RFU, ZNF148 / Fold change vs veh, ZNF148 / RFU, TAF9 / Fold change vs veh, TAF9 / RFU, SLC1A5 / Fold change vs veh, SLC1A5 / RFU, SLMO2 / Fold change vs veh, SLMO2 / RFU, ABCC4 / Fold change vs veh, ABCC4 / RFU, LOC101060439 /// RAP1B / Fold change vs veh, LOC101060439 /// RAP1B / RFU, RFX7 / Fold change vs veh, RFX7 / RFU, GTPBP10 / Fold change vs veh, GTPBP10 / RFU, CNEP1R1 / Fold change vs veh, CNEP1R1 / RFU, BIVM-ERCC5 /// ERCC5 / Fold change vs veh, BIVM-ERCC5 /// ERCC5 / RFU, ILF3 / Fold change vs veh, ILF3 / RFU 11762660_at / Fold change /veh 11762660_at / RFU VCAN (11757783_s_at) / Fold change /veh VCAN (11757783_s_at) / RFU DDX43 (11728927_at) / Fold change /veh DDX43 (11728927_at) / RFU KRT8 (11758188_x_at) / Fold change /veh KRT8 (11758188_x_at) / RFU NKD1 (11759106_at) / Fold change /veh NKD1 (11759106_at) / RFU SRD5A1 (11742802_a_at) / Fold change /veh SRD5A1 (11742802_a_at) / RFU TPSAB1 /// TPSB2 (11721975_s_at) / Fold change /veh TPSAB1 /// TPSB2 (11721975_s_at) / RFU GSTM3 (11746129_a_at) / Fold change /veh GSTM3 (11746129_a_at) / RFU IL23R (11737362_x_at) / Fold change /veh IL23R (11737362_x_at) / RFU TMEM51 (11727254_a_at) / Fold change /veh TMEM51 (11727254_a_at) / RFU PIWIL2 (11732686_x_at) / Fold change /veh PIWIL2 (11732686_x_at) / RFU ORM1 (11744905_x_at) / Fold change /veh ORM1 (11744905_x_at) / RFU CCDC152 (11743942_at) / Fold change /veh CCDC152 (11743942_at) / RFU ECM1 (11717891_a_at) / Fold change /veh ECM1 (11717891_a_at) / RFU IL23R (11748794_a_at) / Fold change /veh IL23R (11748794_a_at) / RFU TNFAIP8L3 (11732012_x_at) / Fold change /veh TNFAIP8L3 (11732012_x_at) / RFU MBOAT4 (11741988_at) / Fold change /veh MBOAT4 (11741988_at) / RFU 11764193_at / Fold change /veh 11764193_at / RFU TMEM53 (11763286_at) / Fold change /veh TMEM53 (11763286_at) / RFU MAGEB2 (11727129_at) / Fold change /veh MAGEB2 (11727129_at) / RFU TMEM200A (11744735_a_at) / Fold change /veh TMEM200A (11744735_a_at) / RFU CCDC152 (11751479_a_at) / Fold change /veh CCDC152 (11751479_a_at) / RFU FAM211A (11726209_a_at) / Fold change /veh FAM211A (11726209_a_at) / RFU RGS16 (11746705_a_at) / Fold change /veh RGS16 (11746705_a_at) / RFU VCAN (11755009_s_at) / Fold change /veh VCAN (11755009_s_at) / RFU RHOB (11743442_s_at) / Fold change /veh RHOB (11743442_s_at) / RFU RGS16 (11720943_a_at) / Fold change /veh RGS16 (11720943_a_at) / RFU RGS16 (11720944_at) / Fold change /veh RGS16 (11720944_at) / RFU, VPS4B / Fold change vs veh, VPS4B / RFU, CREB1 / Fold change vs veh, CREB1 / RFU, DNAJC13 / Fold change vs veh, DNAJC13 / RFU, GNAQ / Fold change vs veh, GNAQ / RFU, CDK5R1 / Fold change vs veh, CDK5R1 / RFU, ZRANB3 / Fold change vs veh, ZRANB3 / RFU, CUL4A / Fold change vs veh, CUL4A / RFU, CCNY / Fold change vs veh, CCNY / RFU, UFL1 / Fold change vs veh, UFL1 / RFU, COG3 / Fold change vs veh, COG3 / RFU, DIAPH2 / Fold change vs veh, DIAPH2 / RFU, SKA2 / Fold change vs veh, SKA2 / RFU, AFF3 / Fold change vs veh, AFF3 / RFU, LMF1 / Fold change vs veh, LMF1 / RFU, IPO11 / Fold change vs veh, IPO11 / RFU, DFFB / Fold change vs veh, DFFB / RFU, FOXP1 / Fold change vs veh, FOXP1 / RFU, CARD8 / Fold change vs veh, CARD8 / RFU, STRN3 / Fold change vs veh, STRN3 / RFU, ADK / Fold change vs veh, ADK / RFU, RASSF2 / Fold change vs veh, RASSF2 / RFU, WIPF1 / Fold change vs veh, WIPF1 / RFU, LARP1B / Fold change vs veh, LARP1B / RFU, RASA1 / Fold change vs veh, RASA1 / RFU, RB1 / Fold change vs veh, RB1 / RFU, PPFIA1 / Fold change vs veh, PPFIA1 / RFU, MAT2A / Fold change vs veh, MAT2A / RFU, CCT5 / Fold change vs veh, CCT5 / RFU, WDR92 / Fold change vs veh, WDR92 / RFU, CUX1 / Fold change vs veh, CUX1 / RFU, TTC7A / Fold change vs veh, TTC7A / RFU, TMEM135 / Fold change vs veh, TMEM135 / RFU, DEPTOR / Fold change vs veh, DEPTOR / RFU, CPM / Fold change vs veh, CPM / RFU, DNAJB6 / Fold change vs veh, DNAJB6 / RFU, CACNA2D3 / Fold change vs veh, CACNA2D3 / RFU, DTX4 / Fold change vs veh, DTX4 / RFU, TFCP2 / Fold change vs veh, TFCP2 / RFU, GMCL1 /// GMCL1P1 / Fold change vs veh, GMCL1 /// GMCL1P1 / RFU, AEBP2 / Fold change vs veh, AEBP2 / RFU, SNHG1 /// SNORD22 /// SNORD25 /// SNORD26 /// SNORD27 /// SNORD28 /// SNORD29 /// SNORD31 / Fold change vs veh, SNHG1 /// SNORD22 /// SNORD25 /// SNORD26 /// SNORD27 /// SNORD28 /// SNORD29 /// SNORD31 / Fold change (Aza/veh), C12orf56 (ProbeSet 11735607_a_at) / Fold change (ACY-1035/veh), C12orf56 (ProbeSet 11735607_a_at) / Fold change (Aza/veh), FGFR1OP (ProbeSet 11751329_s_at) / Fold change (ACY-1035/veh), FGFR1OP (ProbeSet 11751329_s_at) / Fold change (Aza/veh), VPS36 (ProbeSet 11739960_a_at) / Fold change (ACY-1035/veh), VPS36 (ProbeSet 11739960_a_at) / RFU SYPL1 (11715823_x_at) / Fold change /veh SYPL1 (11715823_x_at) / RFU IGFBP7 (11715501_s_at) / Fold change /veh IGFBP7 (11715501_s_at) / RFU REEP3 (11722064_at) / Fold change /veh REEP3 (11722064_at) / RFU IGLL1 (11728026_x_at) / Fold change /veh IGLL1 (11728026_x_at): dose or concentration left out as unconfirmed
Settings: ProbeSet 11724877_a_at; LIST D

Nc1ccc(-c2cccs2)cc1NC(=O)c1ccc2c(c1)cc(C1CC1)n2CCN1CCOCC1 [ACY-1035]
Fold change vs veh, AEBP2: 1.03
